Experimental data from ChEMBL document CHEMBL4229434, “Design, synthesis, and evaluation of novel l-phenylglycine derivatives as potential PPARγ lead compounds” (Bioorg Med Chem, 2018).
Several values for one entry are separate records, joined by “and”; a condition that tells them apart may be missing. Equal values may be shown once.

What was measured:
[1] = target: T1, Peroxisome proliferator-activated receptor gamma (Homo sapiens) (UniProt P37231); assay: Agonist activity at PPARgamma in human HepG2 cells assessed as activation of PPRE at 10 ug/ml incubated for 24 hrs by dual luciferase reporter gene assay relative to pioglitazone; assay type: cell-based
T1 sequence (whole entry): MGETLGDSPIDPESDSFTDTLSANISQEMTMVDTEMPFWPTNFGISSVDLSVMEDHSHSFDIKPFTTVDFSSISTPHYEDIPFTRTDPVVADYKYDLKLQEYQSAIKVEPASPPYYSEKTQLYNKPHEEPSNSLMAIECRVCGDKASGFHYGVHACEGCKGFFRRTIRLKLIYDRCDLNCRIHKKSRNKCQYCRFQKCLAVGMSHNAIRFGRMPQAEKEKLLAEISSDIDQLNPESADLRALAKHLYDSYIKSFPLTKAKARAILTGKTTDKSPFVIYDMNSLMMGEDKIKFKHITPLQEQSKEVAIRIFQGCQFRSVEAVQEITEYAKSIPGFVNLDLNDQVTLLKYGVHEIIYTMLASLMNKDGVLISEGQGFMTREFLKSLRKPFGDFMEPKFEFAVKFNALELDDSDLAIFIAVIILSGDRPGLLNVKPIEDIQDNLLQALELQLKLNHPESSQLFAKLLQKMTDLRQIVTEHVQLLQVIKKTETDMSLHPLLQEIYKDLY

[2] = target: T1, Peroxisome proliferator-activated receptor gamma (Homo sapiens); assay: Agonist activity at PPARgamma in human HepG2 cells assessed as activation of PPRE at 10 ug/ml incubated for 24 hrs by dual luciferase reporter gene assay relative to control; assay type: cell-based
[3] = target: Dipeptidyl peptidase 4 (Homo sapiens) (UniProt P27487); assay: Inhibition of recombinant human C-terminal His-tagged DPP-4 (29 to 766 residues) expressed in Sf9 insect cells at 10 ug/ml using dipeptidyl peptidase […] as substrate incubated for 10 mins followed by substrate addition measured after 40 mins by fluorescence assay relative to control
Rattus norvegicus [4] = organism: Rattus norvegicus; assay: Inhibition of rat small intestine alpha-glucosidase at 10 ug/ml using maltose/glucose as substrate incubated for 10 mins followed by substrate addition measured after 10 mins relative to control
[5] = target: T2, Peroxisome proliferator-activated receptor gamma (Homo sapiens, UniProt P37231); assay: Agonist activity at PPARgamma in human HepG2 cells assessed as activation of PPRE incubated for 24 hrs by dual luciferase reporter gene assay; assay type: cell-based
T2 sequence (P37231 whole entry): T1 sequence (whole entry)

[6] = target: T1, Peroxisome proliferator-activated receptor gamma (Homo sapiens); assay: Agonist activity at PPARgamma in human HepG2 cells assessed as activation of PPRE at 23.05 umol/L incubated for 24 hrs by dual luciferase reporter gene assay relative to control; assay type: cell-based
Rattus norvegicus [7] = organism: Rattus norvegicus; assay: Inhibition of rat small intestine alpha-glucosidase at 3.74 umol/L using maltose/glucose as substrate incubated for 10 mins followed by substrate addition measured after 10 mins relative to control

Sequence of Dipeptidyl peptidase 4 (Homo sapiens) (P27487 whole entry, looked up, the tested form may be a part): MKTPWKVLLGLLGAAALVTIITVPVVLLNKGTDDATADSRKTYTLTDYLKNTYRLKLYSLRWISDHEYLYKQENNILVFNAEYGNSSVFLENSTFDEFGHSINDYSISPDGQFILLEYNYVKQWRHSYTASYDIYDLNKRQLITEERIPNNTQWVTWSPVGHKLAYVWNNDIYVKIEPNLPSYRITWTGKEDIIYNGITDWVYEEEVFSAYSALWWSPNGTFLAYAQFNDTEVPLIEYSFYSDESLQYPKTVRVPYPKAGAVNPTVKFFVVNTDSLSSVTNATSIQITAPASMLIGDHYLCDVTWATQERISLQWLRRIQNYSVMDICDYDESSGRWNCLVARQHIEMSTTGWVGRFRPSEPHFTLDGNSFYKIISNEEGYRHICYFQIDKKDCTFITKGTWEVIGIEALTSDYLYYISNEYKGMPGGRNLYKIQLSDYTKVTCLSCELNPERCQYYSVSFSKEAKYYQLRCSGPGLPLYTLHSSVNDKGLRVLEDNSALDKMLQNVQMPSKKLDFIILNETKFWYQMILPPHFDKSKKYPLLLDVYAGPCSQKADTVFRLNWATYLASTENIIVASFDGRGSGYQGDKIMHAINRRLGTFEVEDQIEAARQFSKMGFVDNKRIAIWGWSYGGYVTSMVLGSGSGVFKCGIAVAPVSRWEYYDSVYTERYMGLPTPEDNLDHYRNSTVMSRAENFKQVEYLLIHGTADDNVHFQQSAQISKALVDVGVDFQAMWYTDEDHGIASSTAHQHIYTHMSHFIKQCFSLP

Compound	Activity [1]	Activity [2]	inhibition [3]	inhibition (Rattus norvegicus [4])	EC50 [5]	Activity [6]	inhibition (Rattus norvegicus [7])
CCCC(=O)Nc1cccc([C@H](NC(=O)OCc2ccccc2)C(=O)OC)c1	11.2%	12%					
COC(=O)[C@@H](NC(=O)OCc1ccccc1)c1cccc(NC(=O)CNc2ccc(S(=O)(=O)Nc3cc(C)on3)cc2)c1	27.9%	18.9%	5.87%	11.8%			
O=C(CCl)Nc1cccc([C@H](NC(=O)OCc2ccccc2)C(=O)O)c1	52.8% and 49.1%	53.5%		17.7%			
Cc1cc(NS(=O)(=O)c2ccc(NCC(=O)Nc3cccc([C@H](NC(=O)OCc4ccccc4)C(=O)O)c3)cc2)no1	58.8%	40.6%	11.1%	8.89%			
CNC(=O)[C@@H](NC(=O)OCc1ccccc1)c1cccc(NC(=O)CCl)c1	-17.4%	-18.8%					
CCNC(=O)[C@@H](NC(=O)OCc1ccccc1)c1cccc(NC(=O)CCl)c1	-19.3%	-20.1%					
O=C(Cn1cnc2ccccc21)Nc1cccc([C@H](NC(=O)OCc2ccccc2)C(=O)O)c1	4.3%	3.85%	-0.74%	0.99%			
CN(CCO)C(=O)[C@@H](NC(=O)OCc1ccccc1)c1cccc(NC(=O)CCl)c1	124%	120%			8.97 µM	208%	
CCCCOC(=O)[C@@H](NC(=O)OCc1ccccc1)c1cccc(NC(=O)CCl)c1	-5.58%	-5.01%					
COC(=O)[C@@H](NC(=O)OCc1ccccc1)c1cccc(NC(=O)CN2C(=O)c3ccccc3C2=O)c1	14.6%	11.9%	2.17%	17.5%			
CCOC(=O)[C@@H](NC(=O)OCc1ccccc1)c1cccc(NC(=O)CCl)c1	-23.9%	-24.8%					
COC(=O)[C@@H](NC(=O)OCc1ccccc1)c1cccc(NC(=O)CCl)c1	100%	105 to 179%	16.1%	14.6%	22.4 µM		
O=C(CCl)Nc1cccc([C@H](NC(=O)OCc2ccccc2)C(=O)NO)c1	-4.96%	-5.33%					
CCC(=O)Nc1cccc([C@H](NC(=O)OCc2ccccc2)C(=O)OC)c1	16.5%	18.3%					
COC(=O)[C@@H](NC(=O)OCc1ccccc1)c1cccc(NC(=O)CCCl)c1	-3.5%	-3.55%					
OCC(CO)N[C@H]1C[C@](O)(CO)[C@@H](O)[C@H](O)[C@H]1O							104%
O=C(CN1C(=O)c2ccccc2C1=O)Nc1cccc([C@H](NC(=O)OCc2ccccc2)C(=O)O)c1	47.4%	39.9%		17.8%			
COC(=O)[C@@H](NC(=O)OCc1ccccc1)c1cccc(NC(=O)Cn2nc(C)cc2C)c1	1.49%	1.36%					
COC(=O)[C@@H](NC(=O)OCc1ccccc1)c1cccc(NC(=O)Cn2cnnn2)c1	14.9%	14.4%					
COC(=O)[C@@H](NC(=O)OCc1ccccc1)c1cccc(NC(=O)CN2CCN(C(=O)OC(C)(C)C)CC2)c1	-10.9%	-8.27%	-6.12%	15.5%			
O=C(CSc1nc2ccccc2[nH]1)Nc1cccc([C@H](NC(=O)OCc2ccccc2)C(=O)O)c1	39.4%	32.9%	-7.54%	12.6%			
COCC(=O)Nc1cccc([C@H](NC(=O)OCc2ccccc2)C(=O)OC)c1	-16.1%	-17.1%					
CCCOC(=O)[C@@H](NC(=O)OCc1ccccc1)c1cccc(NC(=O)CCl)c1	-17.1%	-17.1%					
CC(C)(C)OC(=O)N1CCN(CC(=O)Nc2cccc([C@H](NC(=O)OCc3ccccc3)C(=O)O)c2)CC1	27.5%	21.4%	5.26%	13.7%			
COC(=O)[C@@H](NC(=O)OCc1ccccc1)c1cccc(NC(=O)CCCCl)c1	11.8%	11.6%					
COC(=O)[C@@H](NC(=O)OCc1ccccc1)c1cccc(NC(=O)CSc2nc3ccccc3[nH]2)c1	-9.41%	7.66%	8.99%	9.26%			
COC(=O)[C@@H](NC(=O)OCc1ccccc1)c1cccc(NC(=O)Cn2nnnc2C)c1	15.4%	14.4%					
COC(=O)[C@@H](NC(=O)OCc1ccccc1)c1cccc(NC(C)=O)c1	21.6%	24.9%					
COC(=O)[C@@H](NC(=O)OCc1ccccc1)c1cccc(NC(=O)Cn2nnnc2SC)c1	22.4%	19.5%					
COC(=O)[C@@H](NC(=O)OCc1ccccc1)c1cccc(NC(=O)Cn2cnc3ccccc32)c1	4.52%	3.93%	-0.31%	2.91%			
